This is an account of results in patent US20240263163A1, “CELL-FREE REGIONS BY LABEL-FREE MAGNETIC EXCLUSION” (McMaster University, priority 2021, published 2024).

Entries after “also recorded” stand apart in the source; their conditions may differ.

One series deals with cells. The following applies: concentration of 25 mM; cited from earlier work.
Series [1] relates to HBEC3 KT cells. The experiment in a line: resazurin-based metabolism assay (Presto Blue HS). The format is cell-based. The conditions noted are these: 25×10^−3 M paramagnetic solution 3 h, then 24, 48, 96 and 144 h. The method, then:
The experimental study also involved performing a metabolism assay. A 250 μL suspension of ˜4000 HBEC3 KT cells in 25×10^−3 M paramagnetic solution was added to the wells of a 96-well plate. Following a 3 h incubation period, the paramagnetic solution was replaced with the culture medium. An equal number of cells suspended in the culture medium were added to the wells as controls. A resazurin-based assay (Presto Blue HS, ThermoFisher) was used to analyze cell metabolism at 24, 48, 96, and 144 h. The fluorescence intensity was measured at multiple spots within each well using excitation/emission wavelengths of 560/590 nm (SpectraMax i3, Molecular Devices). Blank wells containing only culture medium were used to account for background fluorescence. The average fluorescence intensity of the blanks was subtracted from the average fluorescence value obtained from each well of the Gadolinium and control groups.
In the experimental study, all statistical tests were performed using the GraphPad Prism software (version 9.0.0). […]
(§1) The effect of the residual Gd^3+ on cell viability was assessed at 24, 48, 96, and 144 h using a live/dead assay. […] Cell metabolism, which is an indicator of viability, was also measured using a resazurin-based assay (Presto Blue HS). The increase in the fluorescence intensity values over time indicates cell proliferation.
(Alamar Blue is a resazurin reagent that responds to reducing activity.)

Series [2] deals with HBEC3 KT cells. Put plainly: cell-free area closure of annular monolayers formed by magnetic exclusion. The format is cell-based, human. The following applies: for closure rate of cell-free area: 0 h to 16 h, N=3. How it is done:
The cells were maintained at 37° C. and 5% CO2 in a humidified atmosphere.
The magnetic exclusion technique was applied to form annular HBEC3 KT monolayers in which HBEC3 KT cells were trypsinized at ˜80% confluency. A 96-well flat-bottom TCT plate (IBIDI) was placed on an array of coaxially arranged ring and cylinder magnets (N52 grade, Zigmyster Magnets). The stock gadolinium-based paramagnetic solution (1 M) was diluted to 25×10^−3 M using the serum-free culture medium. A 250 μL suspension of ˜50,000 cells in 25×10^−3 M paramagnetic solution was added to the wells. After a 3 h incubation period (37° C. and 5% CO2 in a humidified atmosphere), the well plate was removed from the magnet array. The paramagnetic solution was removed, and the wells were washed twice with 200 μL culture medium. […] Tissue culture wells were plasma treated to enhance the attachment of the ECM proteins to the well surfaces. A 300 μL solution of collagen I (500 μg mL^−1) and fibronectin (12 μg mL^−1) was added to the wells. The well plate was incubated at 4° C. overnight, and subsequently, the coated wells were rinsed with phosphate-buffered saline (PBS). Annular HBEC3 KT monolayers were assembled magnetically on the coated surfaces. A fluorescent dye solution of 2 μM Calcein AM and Hoechst 33342 (2 drops per mL) was used to stain the monolayers. Brightfield and fluorescent images were taken using a 10× objective of an EVOS M7000 inverted microscope (ThermoFisher). Excitation/emission wavelengths of 470/525 nm and 357/447 nm were used for Calcein AM and Hoechst 33342, respectively.
The experimental study also involved assessing annular HBEC3 KT monolayer formation by gravitational settling. Annular inserts were 3D printed with a Formlabs Form 2 printer using a clear resin (RS-F2-GPCL-04). The inserts were attached to the well surfaces of a 12-well plate using patterned double-sided silicone adhesive tapes. The well plates containing the inserts were sterilized with UV radiation. A 100 μL suspension of ˜50,000 HBEC3 KT cells in culture medium was added to the inserts. After a 3 h incubation period, the inserts were removed, and the wells were washed twice with 500 μL culture medium.
Cell counting and geometric measurements were automatically determined in the experimental study from fluorescent images with ImageJ Fiji. The watershed segmentation algorithm (Process—Binary—Watershed) was used to distinguish cells in high cell density regions. The brightfield image contrast was adjusted using the Enhance Local Contrast (CLAHE) ImageJ plugin to measure the cell-free area. The Sobel edge detection algorithm (Process—Find edges) was used to highlight the boundaries of the monolayers. Next, image smoothing was performed using the Gaussian Blur filter (Process—Filter—Gaussian Blur). The cell-free areas were measured automatically after setting the image threshold. The equivalent diameters were calculated from the cell-free areas. The monolayer annulus width was determined by taking the average of the annulus widths measured at four orthogonal positions. The straight-line tool of ImageJ was used for the measurements.
The cell-free area closure of the annular monolayers was also studied in the experiments. […] The annular monolayers were produced on TCT and collagen I-fibronectin coated well surfaces to investigate the influence of the underlying substrate on the closure rate.
The initial boundary of the cell-free region is marked by a white dotted line (e.g., see FIG. 6A).
The closure rates are calculated by measuring the differences between the mean initial and final cell-free areas at 0 h and 16 h.

For series [3], the system named is HBEC3 KT cells. The experiment in a line: live/dead assay (NucBlue Live / NucGreen Dead). The format is cell-based. The method, then:
The experimental study also involved performing live/dead assays. A 400 μL suspension of ˜5000 HBEC3 KT cells in 25×10^−3 M paramagnetic solution was added to the wells of a 48-well TCT plate. After a 3 h incubation period, the paramagnetic solution was replaced with the culture medium. As controls, an equal number of cells were seeded into wells containing only the culture medium. The cell viability was assessed using the NucBlue Live and NucGreen Dead nuclear acid stains (ReadyProbes, ThermoFisher). Fluorescent images were taken at 24, 48, 96, and 144 h. Excitation/emission wavelengths of 357/447 nm and 470/525 nm were used for NucBlue and NucGreen, respectively. The quantification of live and dead cells was performed using ImageJ Fiji.
In the experimental study, all statistical tests were performed using the GraphPad Prism software (version 9.0.0). Two-way ANOVA with Bonferroni post hoc tests were performed to assess the effect of residual Gd^3+ on cell viability and metabolism over time. […] A p-value<0.05 was considered statistically significant. […]
as §1

The subject of series [4] is HBEC3 KT cells. The experiment in a line: transcriptome analysis (Clariom S microarray). The following applies: 25×10^−3 M paramagnetic solution 3 h, RNA after 24 h, 21,448 genes, fold-change cutoff 2, FDR p<0.05, N=4. The format is cell-based, human. The method, then: The experimental study also involved performing transcriptome analysis. A 1.5 mL suspension of ˜500,000 HBEC3 KT cells in 25×10^−3 M paramagnetic solution was added to the wells of a 12-well TCT plate. Following a 3 h incubation period, the paramagnetic solution was replaced with the culture medium. After 24 h, total RNA was isolated and purified using RNeasy Mini Kit (Qiagen) as per the manufacturer's protocol. The RNA concentration and purity were measured using a spectrophotometer (NanoDrop, ThermoFisher). Transcriptome analysis was performed using Clariom S microarray gene chips (ThermoFisher).
In the experimental study, all statistical tests were performed using the GraphPad Prism software (version 9.0.0). Two-way ANOVA with Bonferroni post hoc tests were performed to assess the effect of residual Gd^3+ on cell viability and metabolism over time. […] A p-value<0.05 was considered statistically significant. The statistical evaluation of the microarray datasets was performed using the transcriptome analysis console (TAC) software (ThermoFisher). The raw gene expression data were normalized using the signal space transformation-robust multiarray analysis (SST-RMA) algorithm^57. A fold-change cutoff value of 2 was used to identify the differentially expressed genes^42. […]

Series [5] has as its system HBEC3 KT cells. Put plainly: reaction-diffusion (FKPP/Porous-Fisher) numerical model and logistic growth fit of cell-free area closure. The arrangement: species or system human. The following applies: for growth rate λ: from logistic growth equation, U at 16 h and U0; for D0 / D1 / m: Replicate 1. How it is done: Numerical model: The Fisher—Kolmogorov—Petrovsky—Piskunov (FKPP) reaction-diffusion equation is routinely used to model the closure of rectangular cell-free areas in scratch-based assays^27,47,48. The FKPP equation consists of a diffusion term that describes cell migration and a source term representing cell proliferation. The one-dimensional axisymmetric form of the FKPP equation is given by equation (6):^49
where U denotes the cell density (cells mm^−2) and D the cell diffusivity (mm^2 h^−1). The source term consists of a logistic growth function G=λ(1−U/K) with growth rate λ(h^−1) and carrying capacity K (cells mm^−2)^47. The carrying capacity is the maximum density for a cell monolayer when contact inhibition reduces the net cell proliferation to zero^47. The classical FKPP model assumes a constant cell diffusivity D=D0, where D0 is the diffusivity for isolated cells^27,47. In contrast, the Porous-Fisher model, which is an extension of the FKPP model, uses a diffusivity function D=D0(U/K)^m that increases with cell density (m>0), where D0 denotes the maximum diffusivity^47,50.
Besides cell migration, cell proliferation leads to the closure of cell-free areas. To determine […], a logistic growth equation^51 was used as shown in equations 7 and 8:
where U0 denotes the initial cell density. The maximum cell density determined by counting cells in the confluent regions of annular HBEC 3KT monolayers gives K=1690 cells mm^−2, which is consistent with the previously reported values^28,52. Experimentally derived values of U at 16 h and U0 were used to calculate λ from Equation 8.
Brightfield images of the annular monolayers were taken every 2 h over 16 h to track the closures of the cell-free areas on TCT surfaces. Consistent with the monolayer geometry, circular tracks of ˜0.14 mm width were superimposed on the brightfield images to manually count the cells within the domain 0≤r≤Rmax. The total number of cells counted in each track was divided by the respective annulus area to generate experimental cell density datasets. In the cell density plots, each track was represented by the radial distance of its midpoint from the center of the annular monolayer.
The finite volume method (FVM) with a time marching scheme was used to discretize and predict cell density (Up) values from Equation 6. A linear combination of the classical FKPP and Porous-Fisher diffusivity functions were used, i.e., D=D0+D1(U/K)^m, to model the spatiotemporal change in cell density on the TCT surfaces. The combined diffusivity function was previously used to fit cell density profiles of scratch assays with rectangular cell-free areas^50. A zero net flux boundary condition was imposed at both r=0 and r=Rmax^28,50.
As the cell density decreases at the boundary Rmax, the zero net flux condition applied at this boundary is an approximation. A Genetic Algorithm (GA)-based error minimization approach was implemented to minimize the root mean squared error (RMSE) between Up and the experimental (Uexp) cell density values^53 as shown in equation 9.
The cell density was measured at 15 locations within 0≤r≤Rmax and the index i denotes the location number. The index j indicates timepoints, where j=1, 2, 3 and 4 corresponds to t=4, 8, 12 and 16 h. […] The limits for D0 are 0≤D0≤0.004 mm^2 h^−1, where D0=0.004 mm^2 h^−1 is the maximum isolated-cell diffusivity value reported in the literature^28,50.
The experimentally obtained cell-free area closure rates were approximately two orders higher than the maximum value of D0(Section 2.3). […] The exponent m determines whether the diffusivity D changes linearly or non-linearly with a change in cell density. However, the biological meaning of m is not yet fully understood^47. Here, the limits 0≤m≤4 are considered, where m=4 is the highest value reported in the literature^28,50. The experimentally derived values of λ are used in the model. […]

[6] abbreviates: EGF 0.16 ng mL^−1, TCT surfaces.
Where [7] appears, read: EGF 0.80 ng mL^−1, TCT surfaces.

With `[Gd+3]` [Gd^3+], the “effect on cell viability” value with cells is “does not affect cell viability”. Moreover, the “cell metabolism (fluorescence intensity) vs control” value in the series on HBEC3 KT cells [1] was “No significant difference”. The “effect on closure of magnetically assembled monolayers” value in the series with HBEC3 KT cells [2] (vs gravity-assisted monolayers, no EGF, 0 and 16 h, TCT surfaces) is on record as “insignificant”. Besides, in the series on HBEC3 KT cells [3] (25×10^−3 M paramagnetic solution 3 h, then 24, 48, 96 and 144 h, vs control), the “effect on cell viability (viable cell counts)” value was “insignificant”. Further, the “toxicity to the cells” value with HBEC3 KT cells [3] (live/dead and metabolism assays, residual Gd^3+) is given as “not toxic”. Besides, the “differential gene expression / impact on transcriptional profiles” value in the series on HBEC3 KT cells [4] is given as “no statistically significant differentially expressed genes; also recorded: statistically insignificant”.

Regarding epidermal growth factor [EGF], the “growth rate λ” value in the series with HBEC3 KT cells [5] (0.16 ng mL^−1 EGF) and in the series on HBEC3 KT cells [5] (0.8 ng mL^−1 EGF) was approximately 0.03 h⁻¹ in each case. Besides, the λ with HBEC3 KT cells [5] (EGF 0.16 ng mL^−1) and in the series on HBEC3 KT cells [5] (EGF 0.80 ng mL^−1) was 2.91 h^−1 (×10^−2) throughout. The D0 with HBEC3 KT cells [5] (setting [6]) is on record as 3.06 mm^2 h^−1 (×10^−3); in the series on HBEC3 KT cells [5] (setting [7]) it was 3.91 mm^2 h^−1 (×10^−3). In addition, the D1 in the series with HBEC3 KT cells [5] (setting [6]) is listed as 3.02 mm^2 h^−1; with HBEC3 KT cells [5] (setting [7]) it was 3.75 mm^2 h^−1. For the same molecule, the m in the series with HBEC3 KT cells [5] (setting [6]) turned out to be 1.97; in the series on HBEC3 KT cells [5] (setting [7]), 2.62. Besides, the “φ (dimensionless number, higher indicates faster closure)” value in the series with HBEC3 KT cells [5] (EGF 0.16 ng mL^−1, tmax=24 h) was determined as 3.23; in the series on HBEC3 KT cells [5] (EGF 0.80 ng mL^−1, tmax=24 h), 3.60. The “closure rate of cell-free area” value is recorded as approximately 0.56±0.05 mm^2 h^−1 in the series on HBEC3 KT cells [2] (TCT surfaces, 0.16 ng mL^−1 EGF); approximately 0.58±0.01 mm^2 h^−1 in the series on HBEC3 KT cells [2] (TCT surfaces, 0.8 ng mL^−1 EGF); approximately 0.61±0.01 mm^2 h^−1 with HBEC3 KT cells [2] (collagen I-fibronectin surfaces, 0.16 ng mL^−1 EGF); approximately 0.62±0.02 mm^2 h^−1 in the series on HBEC3 KT cells [2] (collagen I-fibronectin surfaces, 0.8 ng mL^−1 EGF). The “change in cell-free areas” value in the series on HBEC3 KT cells [2] (collagen I-fibronectin surfaces, 0.8 ng mL^−1 EGF, at 4 h, in contrast to TCT surfaces) is reported as “significant decrease”. In the series with HBEC3 KT cells [2] (collagen I-fibronectin surfaces, 0.8 ng mL^−1 EGF, at 16 h), the “closure of cell-free regions” value was “near-complete closure”.
